Where two headings read alike, the source gives them in different places.
What was measured:
Assay in all cases: MTT cell proliferation assay
Format in all cases: cell-based
MS751 cells = settings: Homo sapiens, MS751, MS751 cells, approximately 64-72 hours incubation
How it was run: (§1)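 5,000-10,000 cells/well, overnight attach; 8 conc., 1 nM–30 μM; MTT ~4 h; formazan solubilized, OD 490 nm; % inhibition = (1−(ODo/OD))×100 vs neg. control; mostly duplicate, mean±SE.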

Z138 cells = settings: Homo sapiens, Z-138, Z138 cells, approximately 64-72 hours incubation
How it was run: as §1

3T3 cells = settings: Mus musculus, NIH3T3, approximately 64-72 hours incubation
How it was run: as §1

[1] = read-out: MTT Assay IC50 MS-751
[2] = read-out: MTT Assay IC50, MS-751
[3] = read-out: MTT Assay IC50, Z-138

For `Nc1ccc(/C=C/C(=O)NCc2cc3cc(-c4ccc(C(=O)N5CCOCC5)cn4)cc(Cl)c3o2)cn1` [Compound 560, (E)-3-(6-aminopyridin-3-yl)-N-((7-chloro-5-(5-(morpholine-4-carbonyl)pyridin-2-yl)benzofuran-2-yl)methyl)acrylamide], the IC50 (MS751 cells; [1]) was 0.1 to 5 µM, the IC50 (Z138 cells; read-out: MTT Assay IC50 Z-138) was 0.1 to 5 µM and the IC50 (3T3 cells; read-out: MTT Assay IC50 3T3) was > 10 µM.
With `CN(C)c1ccc(/C=C/C(=O)NCc2cc3cc(-c4ccc(C(=O)N5CCOCC5)cc4)cc(Cl)c3o2)cn1` [Compound 551, (E)-N-((7-Chloro-5-(4-(morpholine-4-carbonyl)phenyl)benzofuran-2-yl)methyl)-3-(6-(dimethylamino)pyridin-3-yl)acrylamide] the IC50 (MS751 cells; [1]) was > 10 µM, the IC50 (Z138 cells; read-out: MTT Assay IC50 Z-138) was > 10 µM and the IC50 (3T3 cells; read-out: MTT Assay IC50 3T3) was > 10 µM.
With `Nc1ccc(/C=C/C(=O)NCc2cc3cc(-c4ccc(Oc5ccc(F)nc5)cc4)cc(-c4ccc(F)cc4)c3o2)cn1` [Compound 767, (E)-3-(6-aminopyridin-3-yl)-N-((7-(4-fluorophenyl)-5-(4-((6-fluoropyridin-3-yl)oxy)phenyl)benzofuran-2-yl)methyl)acrylamide] the IC50 (MS751 cells; [2]) was 0.1 to 5 µM, the IC50 (Z138 cells; [3]) was < 0.1 µM and the IC50 (3T3 cells; read-out: MTT Assay IC50, 3T3) was > 10 µM.
`Nc1ccc(/C=C/C(=O)NCc2cc3cc(-c4ccc(C(=S)N5CCC(F)(F)CC5)cc4)cc(-c4ccc(F)cc4F)c3o2)cn1` [Compound 706, (E)-3-(6-aminopyridin-3-yl)-N-((7-(2,4-difluorophenyl)-5-(4-(4,4-difluoropiperidine-1-carbonothioyl)phenyl)benzofuran-2-yl)methyl)acrylamide] was tested, and the IC50 (MS751 cells; [2]) was < 0.1 µM, the IC50 (Z138 cells; [3]) was < 0.1 µM and the IC50 (3T3 cells; read-out: MTT Assay IC50, 3T3) was 0.1 to 5 µM.
With `Nc1ccc(/C=C/C(=O)NCc2cc3cc(-c4ccc(C(=O)N5CC6(CCO6)C5)cn4)cc(C(F)(F)F)c3o2)cn1` [Compound 634, (E)-N-((5-(5-(1-oxa-6-azaspiro[3.3]heptane-6-carbonyl)pyridin-2-yl)-7-(trifluoromethyl)benzofuran-2-yl)methyl)-3-(6-aminopyridin-3-yl)acrylamide] the IC50 (MS751 cells; [1]) was 0.1 to 5 µM, the IC50 (Z138 cells; read-out: MTT Assay IC50 Z-138) was 0.1 to 5 µM and the IC50 (3T3 cells; read-out: MTT Assay IC50 3T3) was > 10 µM.
With `Nc1ccc(/C=C/C(=O)NCc2cc3cc(-c4ccc(C(=O)N5CCC(F)(F)CC5)cc4)cc(-c4ccccn4)c3o2)cn1` [Compound 746, (E)-3-(6-aminopyridin-3-yl)-N-((5-(4-(4,4-difluoropiperidine-1-carbonyl)phenyl)-7-(pyridin-2-yl)benzofuran-2-yl)methyl)acrylamide] the IC50 (MS751 cells; [2]) was < 0.1 µM, the IC50 (Z138 cells; [3]) was < 0.1 µM and the IC50 (3T3 cells; read-out: MTT Assay IC50, 3T3) was 0.1 to 5 µM.
`CC1(F)CCN(C(=O)c2ccc(-c3cc(C(F)(F)F)c4oc(CNC(=O)/C=C/c5ccc(N)nc5)cc4c3)cc2)C1` (single isomer, unassigned) [Compound 715, (E)-3-(6-aminopyridin-3-yl)-N-((5-(4-(3-fluoro-3-methylpyrrolidine-1-carbonyl)phenyl)-7-(trifluoromethyl)benzofuran-2-yl)methyl)acrylamide] was tested, and the IC50 (MS751 cells; [2]) was 0.1 to 5 µM, the IC50 (Z138 cells; [3]) was 0.1 to 5 µM and the IC50 (3T3 cells; read-out: MTT Assay IC50, 3T3) was > 10 µM.
With `Nc1ccc(/C=C/C(=O)NCc2cc3cc(-c4ccc(C(=O)N5CC6CC(C5)O6)cn4)cc(C(F)(F)F)c3o2)cn1` [Compound 626, (E)-N-((5-(5-(6-oxa-3-azabicyclo[3.1.1]heptane-3-carbonyl)pyridin-2-yl)-7-(trifluoromethyl)benzofuran-2-yl)methyl)-3-(6-aminopyridin-3-yl)acrylamide] the IC50 (MS751 cells; [1]) was 0.1 to 5 µM, the IC50 (Z138 cells; read-out: MTT Assay IC50 Z-138) was 0.1 to 5 µM and the IC50 (3T3 cells; read-out: MTT Assay IC50 3T3) was > 10 µM.
For `Nc1ccc(/C=C/C(=O)NCc2cc3c(-c4ccc(C(=O)N5CCC(F)(F)CC5)cc4)cc(Cl)cc3o2)cn1` [Compound 713, (E)-3-(6-aminopyridin-3-yl)-N-((6-chloro-4-(4-(4,4-difluoropiperidine-1-carbonyl)phenyl)benzofuran-2-yl)methyl)acrylamide], the IC50 (MS751 cells; [2]) was 0.1 to 5 µM, the IC50 (Z138 cells; [3]) was 0.1 to 5 µM and the IC50 (3T3 cells; read-out: MTT Assay IC50, 3T3) was 5 to 10 µM.
For `Nc1ccc(/C=C/C(=O)NCc2cc3cc(-c4ccc(C(=O)N5CC6CCC(C5)O6)cn4)cc(C(F)(F)F)c3o2)cn1` [Compound 632, (E)-N-((5-(5-(8-oxa-3-azabicyclo[3.2.1]octane-3-carbonyl)pyridin-2-yl)-7-(trifluoromethyl)benzofuran-2-yl)methyl)-3-(6-aminopyridin-3-yl)acrylamide], the IC50 (MS751 cells; [1]) was 0.1 to 5 µM, the IC50 (Z138 cells; read-out: MTT Assay IC50 Z-138) was 0.1 to 5 µM and the IC50 (3T3 cells; read-out: MTT Assay IC50 3T3) was > 10 µM.
With `O=C(/C=C/c1ccc(Cl)nc1)NCc1cc2cc(-c3ccc(C(=O)N4CCOCC4)cc3)cc(Cl)c2o1` [Compound 537, (E)-N-((7-Chloro-5-(4-(morpholine-4-carbonyl)phenyl)benzofuran-2-yl)methyl)-3-(6-chloropyridin-3-yl)acrylamide] the IC50 (MS751 cells; [1]) was > 10 µM, the IC50 (Z138 cells; read-out: MTT Assay IC50 Z-138) was > 10 µM and the IC50 (3T3 cells; read-out: MTT Assay IC50 3T3) was > 10 µM.
With `CN1Cc2cc(-c3cc(Cl)c4oc(CNC(=O)/C=C/c5ccc(N)nc5)cc4c3)ccc2C1=O` [Compound 513, (E)-3-(6-aminopyridin-3-yl)-N-((7-chloro-5-(2-methyl-1-oxoisoindolin-5-yl)benzofuran-2-yl)methyl)acrylamide] the IC50 (MS751 cells; [1]) was > 10 µM, the IC50 (Z138 cells; read-out: MTT Assay IC50 Z-138) was 0.1 to 5 µM and the IC50 (3T3 cells; read-out: MTT Assay IC50 3T3) was > 10 µM.
In the case of `Nc1ccc(/C=C/C(=O)NCc2cc3cc(-c4ccc(C(=O)N5CCC(C(F)(F)F)CC5)cc4)cc(C(F)(F)F)c3o2)cn1` [Compound 605, (E)-3-(6-aminopyridin-3-yl)-N-((7-(trifluoromethyl)-5-(4-(4-(trifluoromethyl)piperidine-1-carbonyl)phenyl)benzofuran-2-yl)methyl)acrylamide], the IC50 (MS751 cells; [1]) is reported as 0.1 to 5 µM, the IC50 (Z138 cells; read-out: MTT Assay IC50 Z-138) is reported as 0.1 to 5 µM and the IC50 (3T3 cells; read-out: MTT Assay IC50 3T3) is reported as > 10 µM.
`Nc1ccc(/C=C/C(=O)NCc2cc3cc(-c4ncc(C(=O)N5CCOCC5)cn4)cc(C(F)(F)F)c3o2)cn1` [Compound 593, (E)-3-(6-aminopyridin-3-yl)-N-((5-(5-(morpholine-4-carbonyl)pyrimidin-2-yl)-7-(trifluoromethyl)benzofuran-2-yl)methyl)acrylamide] was tested, and the IC50 (MS751 cells; [1]) was 0.1 to 5 µM, the IC50 (Z138 cells; read-out: MTT Assay IC50 Z-138) was 0.1 to 5 µM and the IC50 (3T3 cells; read-out: MTT Assay IC50 3T3) was > 10 µM.
`Nc1ccc(/C=C/C(=O)NCc2cc3cc(-c4cc(C(=O)N5CCOCC5)c(F)cn4)cc(C(F)(F)F)c3o2)cn1` [Compound 580, (E)-3-(6-aminopyridin-3-yl)-N-((5-(5-fluoro-4-(morpholine-4-carbonyl)pyridin-2-yl)-7-(trifluoromethyl)benzofuran-2-yl)methyl)acrylamide] was tested, and the IC50 (MS751 cells; [1]) was < 0.1 µM, the IC50 (Z138 cells; read-out: MTT Assay IC50 Z-138) was < 0.1 µM and the IC50 (3T3 cells; read-out: MTT Assay IC50 3T3) was 5 to 10 µM.
For `O=C(/C=C/c1cccnc1)NCc1cc2cc(-c3ccc(C(=O)N4CC5(COC5)C4)cn3)cc(C(F)(F)F)c2o1` [Compound 689, (E)-N-((5-(5-(2-oxa-6-azaspiro[3.3]heptane-6-carbonyl)pyridin-2-yl)-7-(trifluoromethyl)benzofuran-2-yl)methyl)-3-(pyridin-3-yl)acrylamide], the IC50 (MS751 cells; [2]) was < 0.1 µM, the IC50 (Z138 cells; [3]) was < 0.1 µM and the IC50 (3T3 cells; read-out: MTT Assay IC50, 3T3) was 0.1 to 5 µM.
For `Nc1ccc(/C=C/C(=O)NCc2cc3cc(-c4ccc(C(=O)NNc5cnccn5)cc4)cc(Cl)c3o2)cn1` [Compound 505, (E)-3-(6-aminopyridin-3-yl)-N-((7-chloro-5-(4-(2-(pyrazin-2-yl)hydrazine-1-carbonyl)phenyl)benzofuran-2-yl)methyl)acrylamide], the IC50 (MS751 cells; [1]) was 0.1 to 5 µM, the IC50 (Z138 cells; read-out: MTT Assay IC50 Z-138) was 0.1 to 5 µM and the IC50 (3T3 cells; read-out: MTT Assay IC50 3T3) was > 10 µM.
`Nc1ccc(/C=C/C(=O)NCc2cc3cc(-c4ccc(C(=O)N5CCOCC5)cn4)cc(-c4ccc(F)cc4)c3o2)cn1` [Compound 568, (E)-3-(6-aminopyridin-3-yl)-N-((7-(4-fluorophenyl)-5-(5-(morpholine-4-carbonyl)pyridin-2-yl)benzofuran-2-yl)methyl)acrylamide] was tested, and the IC50 (MS751 cells; [1]) was < 0.1 µM, the IC50 (Z138 cells; read-out: MTT Assay IC50 Z-138) was < 0.1 µM and the IC50 (3T3 cells; read-out: MTT Assay IC50 3T3) was 0.1 to 5 µM.
In the case of `Nc1ccc(/C=C/C(=O)NCc2cc3cc(-c4ccc(C(=O)N5CCC(F)(F)CC5)cc4F)cc(C(F)(F)F)c3o2)cn1` [Compound 683, (E)-3-(6-aminopyridin-3-yl)-N-((5-(4-(4,4-difluoropiperidine-1-carbonyl)-2-fluorophenyl)-7-(trifluoromethyl)benzofuran-2-yl)methyl)acrylamide], the IC50 (MS751 cells; [2]) is reported as 0.1 to 5 µM, the IC50 (Z138 cells; [3]) is reported as 0.1 to 5 µM and the IC50 (3T3 cells; read-out: MTT Assay IC50, 3T3) is reported as > 10 µM.
`Nc1ccc(/C=C/C(=O)NCc2cc3cc(-c4ccc(C(=O)N5CCC(O)(C(F)(F)F)CC5)cn4)cc(C(F)(F)F)c3o2)cn1` [Compound 616, (E)-3-(6-aminopyridin-3-yl)-N-((5-(5-(4-hydroxy-4-(trifluoromethyl)piperidine-1-carbonyl)pyridin-2-yl)-7-(trifluoromethyl)benzofuran-2-yl)methyl)acrylamide] was tested, and the IC50 (MS751 cells; [1]) was < 0.1 µM, the IC50 (Z138 cells; read-out: MTT Assay IC50 Z-138) was < 0.1 µM and the IC50 (3T3 cells; read-out: MTT Assay IC50 3T3) was > 10 µM.
For `O=C(/C=C/c1cccnc1)NCc1cc2cc(-c3ccc(C(=O)N4CC5(COC5)C4)cc3)cc(C(F)(F)F)c2o1` [Compound 688, (E)-N-((5-(4-(2-oxa-6-azaspiro[3.3]heptane-6-carbonyl)phenyl)-7-(trifluoromethyl)benzofuran-2-yl)methyl)-3-(pyridin-3-yl)acrylamide], the IC50 (MS751 cells; [2]) was 0.1 to 5 µM, the IC50 (Z138 cells; [3]) was 0.1 to 5 µM and the IC50 (3T3 cells; read-out: MTT Assay IC50, 3T3) was 0.1 to 5 µM.
For `COc1cc(-c2ccc(C(=O)N3CCOCC3)cn2)cc2cc(CNC(=O)/C=C/c3ccc(N)nc3)oc12` [Compound 640, (E)-3-(6-aminopyridin-3-yl)-N-((7-methoxy-5-(5-(morpholine-4-carbonyl)pyridin-2-yl)benzofuran-2-yl)methyl)acrylamide], the IC50 (MS751 cells; [1]) was < 0.1 µM, the IC50 (Z138 cells; read-out: MTT Assay IC50 Z-138) was < 0.1 µM and the IC50 (3T3 cells; read-out: MTT Assay IC50 3T3) was > 10 µM.
`Nc1ccc(/C=C/C(=O)NCCc2cc3cc(-c4ccc(C(=O)N5CCC(F)(F)CC5)cc4)cc(C(F)(F)F)c3o2)cn1` [Compound 691, (E)-3-(6-aminopyridin-3-yl)-N-(2-(5-(4-(4,4-difluoropiperidine-1-carbonyl)phenyl)-7-(trifluoromethyl)benzofuran-2-yl)ethyl)acrylamide] was tested, and the IC50 (MS751 cells; [2]) was 0.1 to 5 µM, the IC50 (Z138 cells; [3]) was < 0.1 µM and the IC50 (3T3 cells; read-out: MTT Assay IC50, 3T3) was 0.1 to 5 µM.
